Read-outs that look alike come from different tables or passages of the source.

The term inhibition denotes the relative decrease from the control value, in per cent. In general, IC50 refers to the point on the concentration scale where inhibition reaches its midpoint.

The target of one data set is α-glucosidase. Nature of the data set: α-Glucosidase inhibition assay. The data set is classed as biochemical, Saccharomyces cerevisiae. How it is done:
4.5.1. α-Glucosidase Inhibition Assay
The α-glucosidase inhibition experiment was accomplished by using a modified method. Initially, the enzyme solution (from Saccharomyces cerevisiae) (0.2 units/mL dissolved in 0.1 M phosphate buffer; pH 6.8) was mixed with the test sample (1 to 0.039 mg/mL) and incubated in an oven (37 °C for 10 min). After incubation, the substrate (p-nitrophenyl-α-D-glucopyranoside; 0.29 mM) was added to the enzyme and test sample solution and incubated for another 30 min (37 °C).
The percentage of inhibition was determined using the following formula: % Inhibition = [1 − absorbance of test sample/absorbance of control] × 100

The target in the next data set is T1, 15-LOX (lipoxygenase) (Glycine max, UniProt P08170).
T1 construct: purchased Merck (Dorset, UK) and Oxoid (Hampshire, UK)
T1 sequence (P08170 1-839): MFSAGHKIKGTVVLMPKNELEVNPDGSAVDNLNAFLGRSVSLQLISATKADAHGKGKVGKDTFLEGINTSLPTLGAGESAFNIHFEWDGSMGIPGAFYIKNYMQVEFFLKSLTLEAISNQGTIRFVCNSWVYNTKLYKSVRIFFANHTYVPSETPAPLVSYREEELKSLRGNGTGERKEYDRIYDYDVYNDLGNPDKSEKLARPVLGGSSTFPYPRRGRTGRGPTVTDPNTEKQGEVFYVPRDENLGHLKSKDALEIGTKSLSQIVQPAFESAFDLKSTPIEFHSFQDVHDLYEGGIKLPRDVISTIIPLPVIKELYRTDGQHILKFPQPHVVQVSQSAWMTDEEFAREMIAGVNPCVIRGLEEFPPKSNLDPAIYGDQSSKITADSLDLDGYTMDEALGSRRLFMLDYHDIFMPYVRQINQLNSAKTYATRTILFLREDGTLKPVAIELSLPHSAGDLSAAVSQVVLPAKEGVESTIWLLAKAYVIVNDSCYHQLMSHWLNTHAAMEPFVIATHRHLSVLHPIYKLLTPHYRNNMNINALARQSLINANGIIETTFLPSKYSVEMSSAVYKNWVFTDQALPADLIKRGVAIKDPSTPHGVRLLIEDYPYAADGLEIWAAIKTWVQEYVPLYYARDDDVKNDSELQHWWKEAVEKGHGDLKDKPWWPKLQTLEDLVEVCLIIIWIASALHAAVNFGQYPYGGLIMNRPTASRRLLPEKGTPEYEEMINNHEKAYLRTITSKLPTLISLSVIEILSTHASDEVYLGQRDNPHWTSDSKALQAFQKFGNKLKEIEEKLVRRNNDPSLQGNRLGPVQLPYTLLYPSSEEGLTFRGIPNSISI
In words: 15-Lipoxygenase assay. It counts as biochemical.

Data set [1] addresses T2, bovine serum albumin (BSA) glycation by glucose (Bos taurus, UniProt P02769).
T2 construct: purchased Merck (Dorset, UK) and Oxoid (Hampshire, UK)
Nature of the data set: AGEs assay, non-oxidative (BSA-glucose assay). The data set is classed as biochemical. How it is done: 4.5.2. AGEs Assay (BSA-Glucose Assay)
The AGEs assay was accomplished by using a standard protocol. The protein source (bovine serum albumin, BSA) (10 mg/mL; 135 µL) was mixed with D-glucose solution (500 mM, 135 µL in phosphate buffer; 50 mM, pH 7.4), NaN3 (sodium azide; 0.02%) and test samples (various concentrations). The reaction mixtures were kept at 60 °C for 1 week to facilitate glycation. Finally, trichloroacetic acid (10 µL, 100%) was added to it to stop the reaction and precipitate the unbound material. […] Aminoguanidine was used as positive control. The control samples used for the experiment were prepared using the same protocol without the test sample.
The AGEs inhibition was calculated as % inhibition = {1 − [Fluo(BSA + glucose + test substance) − Fluo (BSA + test substance)]/[Fluo (BSA + glucose) − Fluo(BSA)]} × 100 where Fluo is the fluorescence intensity. The IC50 was calculated using MS Excel.

The target in data set [2] is T3, bovine serum albumin (BSA) glycation by methylglyoxal (Bos taurus, UniProt P02769).
T3 construct: purchased Merck (Dorset, UK) and Oxoid (Hampshire, UK)
T3 sequence (P02769 25-607): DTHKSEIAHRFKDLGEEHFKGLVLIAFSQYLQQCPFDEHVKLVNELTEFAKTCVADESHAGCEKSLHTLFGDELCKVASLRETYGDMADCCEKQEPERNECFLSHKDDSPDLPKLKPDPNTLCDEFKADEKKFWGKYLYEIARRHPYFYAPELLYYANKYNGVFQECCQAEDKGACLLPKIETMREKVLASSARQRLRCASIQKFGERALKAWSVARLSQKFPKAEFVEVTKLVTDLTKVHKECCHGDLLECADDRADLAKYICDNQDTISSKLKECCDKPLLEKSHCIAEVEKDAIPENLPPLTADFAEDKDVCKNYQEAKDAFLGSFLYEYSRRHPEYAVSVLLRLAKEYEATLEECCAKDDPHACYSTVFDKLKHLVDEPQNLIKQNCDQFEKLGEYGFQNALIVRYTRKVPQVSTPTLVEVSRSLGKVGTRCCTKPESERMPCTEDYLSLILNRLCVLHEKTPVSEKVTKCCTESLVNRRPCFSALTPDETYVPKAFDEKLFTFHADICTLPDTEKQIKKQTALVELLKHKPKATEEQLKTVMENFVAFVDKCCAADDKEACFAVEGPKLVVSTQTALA
In words: AGEs assay, oxidative (BSA-MGO assay). It counts as biochemical. How it is done: The test samples were added to this reaction mixture and stored at 37 °C for a week. […] The control samples used for the experiment were prepared using the same protocol without a test sample.
The AGEs inhibition was determined as % inhibition = {1 − [(Fluo (BSA + MGO + test substance) − Fluo (BSA + test substance)]/[(Fluo (BSA + MGO) − Fluo (BSA)]} × 100 where Fluo is the fluorescence intensity. The IC50 was calculated using MS Excel.

For data set [3], the target named is T4, BSA cross-link formation (BSA-MGO) (Bos taurus, UniProt P02769).
T4 construct: purchased Merck (Dorset, UK) and Oxoid (Hampshire, UK)
T4 sequence (P02769 25-607): as above
In words: Protein cross-linking assay by SDS-PAGE, BSA-MGO. It counts as biochemical, bovine. The conditions noted are these: SDS-PAGE integrated density. How it is done:
(§1) 4.5.4. Protein Cross-Linking Assay
(§2) Protein cross-linked by AGEs were observed by SDS-PAGE (sodium dodecyl sulphate-polyacrylamide gel electrophoresis). In this experiment, gels (10%) were made and stained with dye (0.25% Coomassie blue). The protein samples (6 µL) were diluted with Tris–HCl buffer (3.75 mL, 0.05 M; pH 6.8) also comprising sodium dodecyl sulphate (150 µL, 10% w/v), 2-mercaptoethanol 1% (v/v) and glycerin 20% v/v), followed by boiling for 5 min. The ladder (12 μL) was loaded into the well on gel preceded by the loading of bromophenol blue (2 μL). After loading, the electrophoresis was accomplished by using the Mini-Protean® Tetra Cell apparatus (Bio-Rad, UK). Afterwards, the gels were stained in a solution containing Coomassie blue [0.25% (w/v)], methanol [50% (v/v)] and acetic acid [10% (v/v)].
(§3) 4.5.5. SDS-PAGE Gels Image Analysis
(§4) The developed gel was stained with Coomassie blue and images were obtained using GelDoc. Finally, the Image J tool was used for the determination of integrated density (IntDen). The integrated density was employed further for the determination of percentage inhibition. The integrated density (ID) was determined as follows:Integrated density (ID) = N × (mean − background) where N is the number of pixels in the selection and the background is the modal grey value (most common pixel value) after smoothing the histogram.

The target in data set [4] is T5, BSA cross-link formation (BSA-glucose) (Bos taurus, UniProt P02769).
T5 construct: purchased Merck (Dorset, UK) and Oxoid (Hampshire, UK)
T5 sequence (P02769 25-607): as above
In words: Protein cross-linking assay by SDS-PAGE, BSA-glucose. The conditions noted are these: SDS-PAGE integrated density. The data set is classed as biochemical, bovine. How it is done: as §1, §2, §3, §4

Where [5] appears, read: read-out: 15-LOX Assay (% Inhibition).
Setting [6] is: non-oxidative mode, Table 6, read-out: Protein Glycation BSA-Glucose (IC50) (converted).
[7] abbreviates: oxidative mode, Table 6, read-out: Protein Glycation BSA-MGO (IC50) (converted).

T2 sequence (P02769 25-607): as above
Experimental for 15-LOX (lipoxygenase): The anti-inflammatory activity of test samples was evaluated using a standard protocol [65]. To the enzyme solution (200 units/mL; 487.5 µL), different concentrations of test sample (12.5 µL (2–0.062 mM) in DMSO were added and incubated for 5 min at 37 °C. The absorbance was recorded immediately after the addition of substrate (500 µL of substrate (250 mM linoleic acid in 0.2 M borate buffer, pH 9) and after every min up to 5 min at 234 nm by using a UV spectrophotometer (UV-1601, SHEMADZU, Kyoto, Japan).
The percentage inhibition of enzyme activity was calculated as follows:% inhibition = ([ΔA1/Δt] − [ΔA2/Δt]/(ΔA1/Δt) × 100 where ΔA1/Δt and ΔA2/Δt are the increase rate in absorbance at 234 nm for a sample without test substance and with test substance, respectively.

Consider `S=C=NCCc1ccccc1` [2-Phenylethylisothiocyanate, 2-phenylethylisothiocyanate], for which the “α-Glucosidase (IC50)” value on α-glucosidase worked out at 28.9 ± 0.1 µg/mL. Further, the “15-LOX Assay (% Inhibition)” value at 15-LOX (lipoxygenase) (25 µg/mL) was “Inactive ^5”. The “Protein Glycation BSA-Glucose (IC50)” value in data set [1] was “Inactive”. Also, the “Protein Glycation BSA-MGO (IC50)” value in data set [2] was “Inactive”. Moreover, the “Inhibition of protein cross-link formation” value in data set [3] was 48%.

Take `O=c1cc(-c2ccc(O)cc2)oc2cc(O)cc(O)c12` [Apigenin, apigenin]: the “α-Glucosidase (IC50)” value on α-glucosidase was found to be 24.4 ± 0.1 µg/mL. For the same molecule, on 15-LOX (lipoxygenase) (14.1 µg/mL), the inhibition at 14.1 µg/mL was determined as 53 ± 0.1%. For the same molecule, the IC50 in data set [1] was 1670 µM. Also, the “Protein Glycation BSA-MGO (IC50)” value in data set [2] is on record as “Inactive”. Further, in data set [4], the “Inhibition of protein cross-link formation” value is on record as 51%.

On to `C=C1CC[C@H]2O[C@]2(C)CC[C@@H]2[C@@H]1CC2(C)C` [Caryophyllene oxide, caryophyllene-oxide], for which the “α-Glucosidase (IC50)” value in the data set on α-glucosidase is reported as “Inactive”. Further, the “15-LOX Assay (% Inhibition)” value at 15-LOX (lipoxygenase) (12.5 µg/mL) was found to be 50.0± 0.1% ^2. Also, the “Protein Glycation BSA-Glucose (IC50)” value in data set [1] (non-oxidative mode, Table 6) was “Inactive”. In data set [2] (oxidative mode, Table 6), the “Protein Glycation BSA-MGO (IC50)” value is “Inactive”. In data set [3], the “Inhibition of protein cross-link formation” value came to 35%.

With `C=C1CC/C=C(\C)CC[C@@H]2[C@@H]1CC2(C)C` [Caryophyllene, trans-caryophyllene], the “α-Glucosidase (IC50)” value with α-glucosidase is given as “Inactive”. Also, the “15-LOX Assay (% Inhibition)” value on 15-LOX (lipoxygenase) (25 µg/mL) was “Inactive ^6”. For the same molecule, the “Protein Glycation BSA-Glucose (IC50)” value in data set [1] is listed as “Inactive”. Moreover, in data set [2], the “Protein Glycation BSA-MGO (IC50)” value was “Inactive”.

As to `C=CCc1ccc(O)c(OC)c1` [Eugenol, eugenol], the “α-Glucosidase (IC50)” value in the data set on α-glucosidase is recorded as “Inactive”. In addition, on 15-LOX (lipoxygenase) (setting [5]), the inhibition at 83 µg/mL worked out at 51 ± 0.2%. Moreover, in data set [1], the midpoint of inhibition, the IC50, lay at 244 µM. The “Protein Glycation BSA-MGO (IC50)” value in data set [2] is “Inactive”.

`O=C1C=CC(=O)c2c(O)cccc21` [Juglone, juglone]: at α-glucosidase, the “α-Glucosidase (IC50)” value amounted to 5.7 ± 0.1 µg/mL. This molecule came in with an inhibition at 2.5 µg/mL on 15-LOX (lipoxygenase) (2.5 µg/mL) of 57 ± 0.1%. Also, the figures for the IC50 in data set [1] (setting [6]) and in data set [2] (setting [7]) were 345 µM and 632 µM, respectively. In data set [3], the “Inhibition of protein cross-link formation” value came out at 39%.

The molecule `O=c1c(O)c(-c2ccc(O)c(O)c2)oc2cc(O)cc(O)c12` [Quercetin, quercetin] returned an inhibition at 25 µg/mL against 15-LOX (lipoxygenase) (25 µg/mL) of 62 ± 0.1%. In addition, the “Inhibition of protein cross-link formation” value in data set [4] is 53%.

As to `C[C@@H]1O[C@@H](Oc2c(-c3ccc(O)c(O)c3)oc3cc(O)cc(O)c3c2=O)[C@H](O)[C@H](O)[C@H]1O` [Quercitrin, quercitrin], the “α-Glucosidase (IC50)” value on α-glucosidase came to 7.6 ± 0.1 µg/mL. On 15-LOX (lipoxygenase) (setting [5]), the inhibition at 16.2 µg/mL turned out to be 65 ± 0.1%. Moreover, the IC50 was 201 µM in data set [1] and 758 µM in data set [2]. The “Inhibition of protein cross-link formation” value in data set [4] came out at 55%.

Turning to `C[C@@H]1O[C@@H](OC[C@H]2O[C@@H](Oc3c(-c4ccc(O)c(O)c4)oc4cc(O)cc(O)c4c3=O)[C@H](O)[C@@H](O)[C@@H]2O)[C@H](O)[C@H](O)[C@H]1O` [Rutin, reference compound], at 15-LOX (lipoxygenase) (12.5 µg/mL), the inhibition at 12.5 µg/mL turned out to be 62 ± 0.1%. Also, the IC50 was 49.1 µM in data set [1] (setting [6]) and 1670 µM in data set [2] (setting [7]).

For the molecule `O=C(O)c1cc(O)c(O)c(O)c1` [gallic acid], the “α-Glucosidase (IC50)” value at α-glucosidase is reported as 8.2 µg/mL.

As to `C/C1=C\CC/C(C)=C/CC(C)(C)/C=C/C1` [α-Humulene, α-humulene], the “α-Glucosidase (IC50)” value in the data set with α-glucosidase was “Inactive”. The “15-LOX Assay (% Inhibition)” value on 15-LOX (lipoxygenase) (13.0 µg/mL) turned out to be 60.0 ± 0.1% ^3. Moreover, the “Protein Glycation BSA-Glucose (IC50)” value in data set [1] (non-oxidative mode, Table 6) is “Inactive”. The “Protein Glycation BSA-MGO (IC50)” value in data set [2] (oxidative mode, Table 6) is “Inactive”. The “Inhibition of protein cross-link formation” value in data set [3] stood at 40%.

Source of the values: article PMC9571302, “Evaluation of Major Constituents of Medicinally Important Plants for Anti-Inflammatory, Antidiabetic and AGEs Inhibiting Properties: In Vitro and Simulatory Evidence” (Molecules, 2022).
